Reference: PubChem BioAssay AID1963438 (Molecular Pharmacology Branch, DTP, NCI, 2024)
“And” between values parts separate entries of the source, which are not always exact repeats. Equal values may be shown once.

Tested on: NCI-H510 multicellular tumor spheroid growth, % test/control
Test: Anticancer human tumor NCI-H510 cell line growth inhibition [Asc];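 note: spheroids exposed to agents for 7 days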;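 for viability, T/C: 100% = DMSO vehicle control wells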
Conditions: for viability, T/C: stronger effect = lower value
Summary of the method: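 Tumor cells were grown as complex spheroids with human endothelial cells (HUVEC) and human mesenchymal stem cells as stroma. Agents were tested alone and in combination, in half-log steps down from the clinical Cmax, or from 10 microM where Cmax was unknown.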

[1] = curve of first compound, second compound 0.1 µM
[2] = curve of first compound, second compound 0.316 µM
[3] = curve of first compound, second compound 1 µM
[4] = curve of first compound, second compound 3.16 µM
[5] = curve of first compound, second compound 10 µM
[6] = second compound 0.1 µM, first compound 0.00316 µM
[7] = second compound 0.1 µM, first compound 0.01 µM
[8] = second compound 0.1 µM, first compound 0.0316 µM
[9] = second compound 0.1 µM, first compound 0.1 µM
[10] = second compound 0.1 µM, first compound 0.316 µM
[11] = second compound 0.1 µM, first compound 1 µM
[12] = second compound 0.316 µM, first compound 0.00316 µM
[13] = second compound 0.316 µM, first compound 0.01 µM
[14] = second compound 0.316 µM, first compound 0.0316 µM
[15] = second compound 0.316 µM, first compound 0.1 µM
[16] = second compound 0.316 µM, first compound 0.316 µM
[17] = second compound 0.316 µM, first compound 1 µM
[18] = second compound 1 µM, first compound 0.00316 µM
[19] = second compound 1 µM, first compound 0.01 µM
[20] = second compound 1 µM, first compound 0.0316 µM
[21] = second compound 1 µM, first compound 0.1 µM
[22] = second compound 1 µM, first compound 0.316 µM
[23] = second compound 1 µM, first compound 1 µM
[24] = second compound 3.16 µM, first compound 0.00316 µM
[25] = second compound 3.16 µM, first compound 0.01 µM
[26] = second compound 3.16 µM, first compound 0.0316 µM
[27] = second compound 3.16 µM, first compound 0.1 µM
[28] = second compound 3.16 µM, first compound 0.316 µM
[29] = second compound 3.16 µM, first compound 1 µM
[30] = second compound 10 µM, first compound 0.00316 µM
[31] = second compound 10 µM, first compound 0.01 µM
[32] = second compound 10 µM, first compound 0.0316 µM
[33] = second compound 10 µM, first compound 0.1 µM
[34] = second compound 10 µM, first compound 0.316 µM
[35] = second compound 10 µM, first compound 1 µM

Row | Compound | IC50 [1] [nM] | IC50 [2] [nM] | IC50 [3] [nM] | viability, T/C [6] [%] | viability, T/C [7] [%] | viability, T/C [8] [%] | viability, T/C [9] [%] | viability, T/C [10] [%] | viability, T/C [11] [%] | viability, T/C [12] [%] | viability, T/C [13] [%] | viability, T/C [14] [%] | viability, T/C [15] [%] | viability, T/C [16] [%] | viability, T/C [17] [%] | viability, T/C [18] [%] | viability, T/C [19] [%] | viability, T/C [20] [%] | viability, T/C [21] [%] | viability, T/C [22] [%] | also measured
1 | CNC(C)C(=O)NC1CN(S(=O)(=O)c2cccc(S(=O)(=O)N3CCC4CCC(C(=O)NC(c5ccccc5)c5ccccc5)N4C(=O)C(NC(=O)C(C)NC)C3)c2)CCC2CCC(C(=O)NC(c3ccccc3)c3ccccc3)N2C1=O (configuration not stated) + Cc1c(S(C)(=O)=O)c(-c2cc(F)cc(N3CCN(c4ccc(NS(=O)(=O)c5ccc(NC(CCN6CCC(C(=O)OCCCP(=O)(O)O)CC6)CSc6ccccc6)c(S(=O)(=O)C(F)(F)F)c5)cc4)CC3)c2)c(-c2ccc(Cl)cc2)n1C(C)C | > 1000 | > 1000 | > 1000 | 114 | 122 | 111 | 120 | 99.8 | 128 | 93.6 | 117 | 107 | 102 | 104 | 112 | 115 | 97.5 | 107 | 103 | 76.9 | IC50 [4]: > 1000 nM; IC50 [5]: > 1000 nM; viability, T/C [23]: 91%; viability, T/C [24]: 102%; viability, T/C [25]: 112%; viability, T/C [26]: 109%; viability, T/C [27]: 96.6%; viability, T/C [28]: 85.7%; viability, T/C [29]: 104%; viability, T/C [30]: 110%; viability, T/C [31]: 104%; viability, T/C [32]: 70.4%; viability, T/C [33]: 87.7%; viability, T/C [34]: 111%; viability, T/C [35]: 98.6%
2 | O=C(c1ccc(F)c(F)c1Nc1ccc(I)cc1F)N1CC(O)([C@@H]2CCCCN2)C1 + CNC(C)C(=O)NC1CN(S(=O)(=O)c2cccc(S(=O)(=O)N3CCC4CCC(C(=O)NC(c5ccccc5)c5ccccc5)N4C(=O)C(NC(=O)C(C)NC)C3)c2)CCC2CCC(C(=O)NC(c3ccccc3)c3ccccc3)N2C1=O | > 1000 | > 1000 | > 1000 | 112 | 95.2 | 104 | 97.2 | 92.1 | 101 | 102 | 101 | 104 | 105 | 100 | 108 | 109 | 111 | 101 | 90.2 | 99.7 | IC50 (curve of first compound, second compound 0.01 µM): > 1000 nM; IC50 (curve of first compound, second compound 0.0316 µM): > 1000 nM; viability, T/C (second compound 0.01 µM, first compound 0.00316 µM): 98.5%; viability, T/C (second compound 0.01 µM, first compound 0.01 µM): 113%; viability, T/C (second compound 0.01 µM, first compound 0.0316 µM): 102%; viability, T/C (second compound 0.01 µM, first compound 0.1 µM): 101%; viability, T/C (second compound 0.01 µM, first compound 0.316 µM): 102%; viability, T/C (second compound 0.01 µM, first compound 1 µM): 79.6%; viability, T/C (second compound 0.0316 µM, first compound 0.00316 µM): 94.7%; viability, T/C (second compound 0.0316 µM, first compound 0.01 µM): 103%; viability, T/C (second compound 0.0316 µM, first compound 0.0316 µM): 88%; viability, T/C (second compound 0.0316 µM, first compound 0.1 µM): 102%; viability, T/C (second compound 0.0316 µM, first compound 0.316 µM): 100%; viability, T/C (second compound 0.0316 µM, first compound 1 µM): 90.3%; viability, T/C [23]: 84.7%
3 | O=C(c1ccc(F)c(F)c1Nc1ccc(I)cc1F)N1CC(O)([C@@H]2CCCCN2)C1 + Cc1c(S(C)(=O)=O)c(-c2cc(F)cc(N3CCN(c4ccc(NS(=O)(=O)c5ccc(NC(CCN6CCC(C(=O)OCCCP(=O)(O)O)CC6)CSc6ccccc6)c(S(=O)(=O)C(F)(F)F)c5)cc4)CC3)c2)c(-c2ccc(Cl)cc2)n1C(C)C | > 1000 | > 1000 | > 1000 | 113 | 107 | 115 | 96.9 | 90 | 87.4 | 124 | 104 | 113 | 88.7 | 58.7 | 83 | 99.7 | 115 | 126 | 89.8 | 86.9 | IC50 [4]: > 1000 nM; IC50 [5]: > 1000 nM; viability, T/C [23]: 91.7%; viability, T/C [24]: 107%; viability, T/C [25]: 88.1%; viability, T/C [26]: 108%; viability, T/C [27]: 104%; viability, T/C [28]: 81.3%; viability, T/C [29]: 81.4%; viability, T/C [30]: 74.7%; viability, T/C [31]: 105%; viability, T/C [32]: 96.1%; viability, T/C [33]: 105%; viability, T/C [34]: 78.3%; viability, T/C [35]: 64.3%
4 | CNC(C)C(=O)NC1CN(S(=O)(=O)c2cccc(S(=O)(=O)N3CCC4CCC(C(=O)NC(c5ccccc5)c5ccccc5)N4C(=O)C(NC(=O)C(C)NC)C3)c2)CCC2CCC(C(=O)NC(c3ccccc3)c3ccccc3)N2C1=O (configuration not stated) | – | – | – | – | – | – | – | – | – | – | – | – | – | – | – | – | – | – | – | – | viability, T/C (compound 0.00316 µM): 103% and 100% and 104%; viability, T/C (compound 0.01 µM): 106% [middle of 14 runs]; viability, T/C (compound 0.0316 µM): 102% [middle of 14 runs]; viability, T/C (compound 0.1 µM): 103% [middle of 14 runs]; IC50 (compound alone, run of 10/24/2022): > 1000 nM; IC50 (compound alone, run of 11/15/2022): > 1000 nM; IC50 (curve of compound): > 1000 nM
